Measurements from patent US10246429B2, “Vinyl fluoride cyclopropyl fused thiazin-2-amine compounds as beta-secretase inhibitors and methods of use” (AMGEN INC., priority 2015, dated 2019).

Experiments:
BACE1 [1] = biological target: T1, BACE1 (Homo sapiens (Human), UniProt P56817); test: In vitro enzymatic BACE1 FRET assay; assay type: biochemical; conditions: read-out: IC50 IP (μM) BACE1 Enzyme
Target sequence in this assay (P56817 46-501): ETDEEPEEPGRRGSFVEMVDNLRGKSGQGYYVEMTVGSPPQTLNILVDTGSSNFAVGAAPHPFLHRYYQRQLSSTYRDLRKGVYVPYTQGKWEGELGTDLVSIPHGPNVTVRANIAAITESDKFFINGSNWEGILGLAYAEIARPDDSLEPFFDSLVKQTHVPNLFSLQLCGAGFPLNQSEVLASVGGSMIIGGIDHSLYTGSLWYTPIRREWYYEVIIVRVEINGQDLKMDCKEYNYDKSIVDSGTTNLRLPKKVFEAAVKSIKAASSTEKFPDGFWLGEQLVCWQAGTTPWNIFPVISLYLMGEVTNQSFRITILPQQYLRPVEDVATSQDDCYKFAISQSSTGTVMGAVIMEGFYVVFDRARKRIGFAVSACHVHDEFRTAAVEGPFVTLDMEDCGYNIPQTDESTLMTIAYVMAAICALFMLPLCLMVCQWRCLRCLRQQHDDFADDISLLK
Excerpt: (§1) In Vitro Enzymatic BACE1 and BACE2 FRET (Fluorescence Resonance Energy Transfer) Assays (Enzyme Assay Data in Table 1)

BACE1 [2] = biological target: T1, BACE1; test: BACE1 cell assay; assay type: cell-based
Target sequence in this assay (P56817 46-501, species assumed): as the sequence (P56817 46-501) above

Cathepsin D (CatD) = Cathepsin D (CatD) (Homo sapiens (Human), UniProt P07339); test: CatD assay; assay type: biochemical; conditions: read-out: IC50 IP (μM) CatD
BACE2 = BACE2 (Homo sapiens (Human), UniProt Q9Y5Z0); test: In vitro enzymatic BACE2 FRET assay; assay type: biochemical; conditions: read-out: IC50 IP (μM) BACE2 Enzyme
Excerpt: as §1

[3] = read-out: IC50 IP (μM) BACE1 Cell

BACE2, sequence (Q9Y5Z0 63-518): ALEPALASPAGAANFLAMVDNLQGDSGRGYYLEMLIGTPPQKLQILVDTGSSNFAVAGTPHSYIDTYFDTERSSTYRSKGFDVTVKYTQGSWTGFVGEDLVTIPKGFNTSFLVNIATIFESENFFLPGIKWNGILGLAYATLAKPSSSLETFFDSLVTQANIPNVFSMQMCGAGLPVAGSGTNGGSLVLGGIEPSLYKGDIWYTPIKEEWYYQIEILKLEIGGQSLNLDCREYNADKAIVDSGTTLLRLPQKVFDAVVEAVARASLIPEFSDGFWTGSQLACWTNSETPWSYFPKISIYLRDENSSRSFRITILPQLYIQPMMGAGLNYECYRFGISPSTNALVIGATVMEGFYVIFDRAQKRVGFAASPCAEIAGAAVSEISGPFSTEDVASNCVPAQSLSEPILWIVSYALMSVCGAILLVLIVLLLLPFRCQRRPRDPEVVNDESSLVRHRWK
Cathepsin D (CatD), sequence (P07339 65-412, species assumed): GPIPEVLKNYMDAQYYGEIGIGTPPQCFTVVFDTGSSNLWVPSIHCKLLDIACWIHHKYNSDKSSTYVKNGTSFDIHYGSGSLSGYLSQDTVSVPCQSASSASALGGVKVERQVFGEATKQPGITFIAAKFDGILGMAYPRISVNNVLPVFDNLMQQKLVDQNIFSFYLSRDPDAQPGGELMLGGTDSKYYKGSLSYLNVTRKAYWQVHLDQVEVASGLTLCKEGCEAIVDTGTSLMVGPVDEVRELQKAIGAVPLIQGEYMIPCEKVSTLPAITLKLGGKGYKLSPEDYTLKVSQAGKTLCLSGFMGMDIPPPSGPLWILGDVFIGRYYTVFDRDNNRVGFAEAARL

SMILES	IC50 (BACE1 [1]) [µM]	IC50 (BACE1 [2]; [3]) [µM]	IC50 (Cathepsin D (CatD)) [µM]	IC50 (BACE2) [µM]	IC50 (BACE1 [2]) [µM]
CN(C)C(=O)[C@]12C[C@H]1[C@@](C)(c1cc(/C=C(\F)c3cnc(OCC4CC4(F)F)cn3)ccc1F)N=C(N)S2 (stereo partly drawn) [Example 215, (1S,5S,6S)-3-amino-5-(5-((Z)-2-(5-((2,2-difluorocyclopropyl)methoxy)pyrazin-2-yl)-2-fluorovinyl)-2-fluorophenyl)-N,N,5-trimethyl-2-thia-4-azabicyclo[4.1.0]hept-3-ene-1-carboxamide]	0.037	0.262	121	0.051	
CNC(=O)[C@]12C[C@H]1[C@@](C)(c1cc(/C=C(\F)c3ccc(Br)cn3)ccc1F)N=C(N)S2 [Example 355, (1S,5S,6S)-3-amino-5-(5-((Z)-2-(5-bromopyridin-2-yl)-2-fluorovinyl)-2-fluorophenyl)-N,5-dimethyl-2-thia-4-azabicyclo[4.1.0]hept-3-ene-1-carboxamide]	0.01	0.023	141	0.069	
CNC(=O)[C@]12C[C@H]1[C@@](C)(c1cc(/C=C(\F)c3cnc(C#C[Si](C)(C)C)cn3)ccc1F)N=C(N)S2 [Example 166, (1S,5S,6S)-3-amino-5-(2-fluoro-5-((Z)-2-fluoro-2-(5-((trimethylsilyl)ethynyl)pyrazin-2-yl)vinyl)phenyl)-N,5-dimethyl-2-thia-4-azabicyclo[4.1.0]hept-3-ene-1-carboxamide]	0.0171	0.185	146	1.72	
CC1COC([C@]23C[C@H]2[C@@](C)(c2cc(/C=C(\F)c4ccc(C#N)cn4)ccc2F)N=C(N)S3)=N1 (stereo partly drawn) [Example 342, 6-((Z)-2-(3-((1S,5S,6S)-3-amino-5-methyl-1-(4-methyl-4,5-dihydrooxazol-2-yl)-2-thia-4-azabicyclo[4.1.0]hept-3-en-5-yl)-4-fluorophenyl)-1-fluorovinyl)nicotinonitrile]	0.122	0.0073	400	0.7	
C[C@]1(c2cc(/C=C(\F)c3ccc(C#N)cn3)cnc2F)N=C(N)S[C@@]2(C(=O)N3CC[C@@H](F)C3)C[C@H]21 [Example 181, 6-((Z)-2-(5-((1S,5S,6S)-3-amino-1-((R)-3-fluoropyrrolidine-1-carbonyl)-5-methyl-2-thia-4-azabicyclo[4.1.0]hept-3-en-5-yl)-6-fluoropyridin-3-yl)-1-fluorovinyl)nicotinonitrile]	0.0021	0.0073	653	0.033	
CNC(=O)[C@]12C[C@H]1[C@@](C)(c1cc(/C=C(\F)c3cnc(OCc4cnco4)cn3)ccc1F)N=C(N)S2 [Example 226, (1S,5S,6S)-3-amino-5-(2-fluoro-5-((Z)-2-fluoro-2-(5-(oxazol-5-ylmethoxy)pyrazin-2-yl)vinyl)phenyl)-N,5-dimethyl-2-thia-4-azabicyclo[4.1.0]hept-3-ene-1-carboxamide]	0.126		18.5	0.285	0.608
CN(C)C(=O)[C@]12C[C@H]1[C@@](C)(c1cc(/C=C(\F)c3ccc(C#N)cc3)ccc1F)N=C(N)S2 [Example 168, (1S,5S,6S)-3-amino-5-(5-((Z)-2-(4-cyanophenyl)-2-fluorovinyl)-2-fluorophenyl)-N,N,5-trimethyl-2-thia-4-azabicyclo[4.1.0]hept-3-ene-1-carboxamide]	0.00496	0.0368	442	0.104	
CNC(=O)[C@]12C[C@H]1[C@@](C)(c1cc(/C=C(\F)c3cnc(C#CC4CC4)cn3)ccc1F)N=C(N)S2 [Example 165, (1S,5S,6S)-3-amino-5-(5-((Z)-2-(5-(cyclopropylethynyl)pyrazin-2-yl)-2-fluorovinyl)-2-fluorophenyl)-N,5-dimethyl-2-thia-4-azabicyclo[4.1.0]hept-3-ene-1-carboxamide]	0.00707	0.121	538	0.307	
COC(=O)[C@]12C[C@H]1[C@@](C)(c1cc(/C=C(\F)c3ccc(Cl)cn3)cc(F)c1F)N=C(N)S2 [Example 248, (1S,5S,6S)-methyl 3-amino-5-(5-((Z)-2-(5-chloropyridin-2-yl)-2-fluorovinyl)-2,3-difluorophenyl)-5-methyl-2-thia-4-azabicyclo[4.1.0]hept-3-ene-1-carboxylate]	0.0625		200	0.083	1.59
C[C@]1(c2cc(/C=C(\F)c3ccc(C#N)cn3)ccc2F)N=C(N)S[C@@]2(C(=O)N3Cc4ccccc4C3)C[C@H]21 [Example 129, 6-((Z)-2-(3-((1S,5S,6S)-3-amino-1-(isoindoline-2-carbonyl)-5-methyl-2-thia-4-azabicyclo[4.1.0]hept-3-en-5-yl)-4-fluorophenyl)-1-fluorovinyl)nicotinonitrile bis(2,2,2-trifluoroacetate)]	0.00117	0.0165	133	0.0311	
C[C@]1(c2cc(/C=C(\F)c3ccc(C#N)cn3)ccc2F)N=C(N)S[C@@]2(C(=O)N3C4CCC3COC4)C[C@H]21 [Example 315, 6-((Z)-2-(3-((1S,5S,6S)-3-amino-1-(3-oxa-8-azabicyclo[3.2.1]octane-8-carbonyl)-5-methyl-2-thia-4-azabicyclo[4.1.0]hept-3-en-5-yl)-4-fluorophenyl)-1-fluorovinyl)nicotinonitrile]	0.0016		390	0.071	0.0013
C#CCOc1cnc(/C(F)=C/c2cnc(F)c([C@@]3(C)N=C(N)S[C@@]4(C(=O)NCC(F)F)C[C@H]43)c2)cn1 [Example 300, (1S,5S,6S)-3-amino-N-(2,2-difluoroethyl)-5-(2-fluoro-5-((Z)-2-fluoro-2-(5-(prop-2-yn-1-yloxy)pyrazin-2-yl)vinyl)pyridin-3-yl)-5-methyl-2-thia-4-azabicyclo[4.1.0]hept-3-ene-1-carboxamide]	0.0025		20	0.411	0.0066
C[C@]1(c2cc(/C=C(\F)c3ccc(C#N)cn3)ccc2F)N=C(N)S[C@@]2(C(=O)N3CCC(F)CC3)C[C@H]21 [Example 326, 6-((Z)-2-(3-((1S,5S,6S)-3-amino-1-(4-fluoropiperidine-1-carbonyl)-5-methyl-2-thia-4-azabicyclo[4.1.0]hept-3-en-5-yl)-4-fluorophenyl)-1-fluorovinyl)nicotinonitrile]	0.0016	0.0022	648	0.045	
Cc1cc(COc2cnc(/C(F)=C/c3ccc(F)c([C@@]4(C)N=C(N)S[C@@]5(C(=O)N(C)C)C[C@H]54)c3)cn2)on1 [Example 218, (1S,5S,6S)-3-amino-5-(2-fluoro-5-((Z)-2-fluoro-2-(5-((3-methylisoxazol-5-yl)methoxy)pyrazin-2-yl)vinyl)phenyl)-N,N,5-trimethyl-2-thia-4-azabicyclo[4.1.0]hept-3-ene-1-carboxamide]	0.01		156	0.033	0.04
CC#CCOc1cnc(/C(F)=C/c2ccc(F)c([C@@]3(C)N=C(N)S[C@@]4(C(C)=O)C[C@H]43)c2)cn1 [Example 235, 1-((1S,5S,6S)-3-amino-5-(5-((Z)-2-(5-(but-2-yn-1-yloxy)pyrazin-2-yl)-2-fluorovinyl)-2-fluorophenyl)-5-methyl-2-thia-4-azabicyclo[4.1.0]hept-3-en-1-yl)ethanone]	0.0022	0.0058	587	0.247	
